Among the test systems are U-251; NCI-H226; EKVX; KM12; HCT-15; XF498; HCT-116; A549; HT-29; Malme-3M; KM-20L2; SF-295; HL-60; UO-31; COLO 205; DMS-273; SK-OV-3; OVCAR-8; CAKI-1; HOP-92.
Common to all, as to experiment: inhibition of tumour cell growth, NCI panel, 48 h

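Results reflect a 48-hour exposure of cells in 96-well plates to compound at five concentrations. Abbreviation: GI50, concentration required for 50% inhibition of growth.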 The source made the active and inactive calls. Rule as the data show it: active = GI50 up to about 1.1 µM and inactive = higher.

The source of these data is ChEMBL document CHEMBL1201862, “PubChem BioAssay data set” (2004).

Consider `CSCC[C@@H](NC(=O)[C@H](CC(C)C)NC(=O)C(Cc1cnc[nH]1)NC(=O)CNC(=O)[C@@H](NC(=O)[C@H](C)NC(=O)[C@H](Cc1cn(C=O)c2ccccc12)NC(=O)[C@H](CCC(N)=O)NC(=O)[C@@H](N)CC(N)=O)C(C)C)C(N)=O` (some centres undefined), for which the GI50 was > 100 µM (inactive) in the experiment with U-251; > 100 µM (inactive) with NCI-H226; > 100 µM (inactive) with EKVX; > 100 µM (inactive) in the experiment with KM12; > 100 µM in the experiment with HCT-15; > 100 µM (inactive) with XF498. In addition, the GI50 with HCT-116, with A549, in the experiment on HT-29, in the experiment with Malme-3M, in the experiment with KM-20L2 and in the experiment with SF-295 was > 100 µM (inactive) in each case. Moreover, the GI50 with HL-60, with UO-31, in the experiment on COLO 205, with DMS-273, in the experiment with SK-OV-3 and in the experiment with OVCAR-8 was > 100 µM (inactive) each time.

For the compound `O=S(=O)(c1ccc(I)cc1)N(c1ccccc1)S(=O)(=O)C(F)(F)C(F)(F)C(F)(F)C(F)(F)F`, the GI50 in the experiment on U-251 was 75.2 µM (inactive); in the experiment on NCI-H226 it was 22.9 µM (inactive); with EKVX it was 40.8 µM (inactive); in the experiment with KM12, 18.8 µM (inactive); with HCT-15, 41.2 µM; in the experiment on HCT-116, 19.9 µM (inactive). The GI50 in the experiment with A549 is 31.5 µM (inactive); in the experiment on CAKI-1, 34.1 µM (inactive); with HT-29 it was 22.4 µM (inactive); in the experiment with Malme-3M, 18.6 µM (inactive); in the experiment with HOP-92 it was 15.4 µM (inactive); with SF-295, 24 µM (inactive). Also, the GI50 in the experiment on HL-60 is 97.7 µM (inactive); in the experiment on UO-31, 55.8 µM (inactive); in the experiment on COLO 205, 40 µM (inactive); in the experiment with SK-OV-3, 26.4 µM (inactive); with OVCAR-8 it was 48 µM (inactive).

Take `Cc1ccc(SSCCCCCS(=O)O)cc1`: the GI50 in the experiment with U-251 was 11 µM (inactive); in the experiment with EKVX, 45.3 µM (inactive); with KM12, 36.1 µM (inactive); with XF498, 18.6 µM (inactive); in the experiment with HCT-116, 14.6 µM (inactive); in the experiment on HT-29, 37.8 µM (inactive). Further, the GI50 in the experiment with Malme-3M is 18.3 µM (inactive); in the experiment on HL-60, 16.6 µM (inactive); with UO-31, 19.9 µM (inactive); in the experiment with SK-OV-3, > 100 µM (inactive).

As for `CC(=O)Oc1ccccc1[C@H]1CC(=O)C[C@H](c2ccccc2OC(C)=O)C12C(=O)c1ccccc1C2=O`, the GI50 was 38.9 µM (inactive) in the experiment on U-251; 27.6 µM (inactive) with NCI-H226; 59.6 µM (inactive) in the experiment on KM12; 26.2 µM in the experiment on HCT-15; 29.4 µM (inactive) in the experiment on HCT-116; 20.9 µM (inactive) with CAKI-1. Also, the GI50 was 29.2 µM (inactive) with HT-29; 40 µM (inactive) in the experiment with Malme-3M; 47.9 µM (inactive) with HOP-92; 22.6 µM (inactive) in the experiment with SF-295; > 100 µM (inactive) with HL-60; 36.3 µM (inactive) with UO-31. In addition, the GI50 was 22.3 µM (inactive) in the experiment on COLO 205, 43 µM (inactive) in the experiment on SK-OV-3 and 39.6 µM (inactive) with OVCAR-8.

As to `COc1cccc(NC(=O)CC(=O)NN2C(=O)/C(=C/c3ccc(N(CCC#N)CCC#N)cc3)N=C2c2cc([N+](=O)[O-])ccc2Cl)c1`, the GI50 in the experiment with U-251 is 75.3 µM (inactive); with NCI-H226 it was 13.6 µM (inactive); in the experiment with EKVX it was 56.1 µM (inactive); with KM12, > 100 µM (inactive); in the experiment on HCT-15, > 100 µM; in the experiment on XF498 it was 57.7 µM (inactive). Also, the GI50 in the experiment on HCT-116 is > 100 µM (inactive); in the experiment on A549, > 100 µM (inactive); with CAKI-1, > 100 µM (inactive); with Malme-3M, 32.7 µM (inactive); in the experiment on KM-20L2 it was 25.8 µM (inactive); in the experiment with HOP-92, > 100 µM (inactive). Further, the GI50 is 87.1 µM (inactive) in the experiment on SF-295; > 100 µM (inactive) in the experiment with UO-31; > 100 µM (inactive) in the experiment on COLO 205; > 100 µM (inactive) with DMS-273; > 100 µM (inactive) in the experiment with SK-OV-3; 45.8 µM (inactive) in the experiment with OVCAR-8.

As to `COc1ccc(CCn2nccc2C)cc1`, the GI50 in the experiment with U-251 is > 100 µM (inactive); in the experiment on EKVX, 93.8 µM (inactive); with KM12, > 100 µM (inactive); in the experiment on HCT-15, > 100 µM; in the experiment on HCT-116, > 100 µM (inactive); in the experiment with A549, > 100 µM (inactive). For the same compound, the GI50 with CAKI-1 was > 100 µM (inactive); in the experiment with HT-29, > 100 µM (inactive); with Malme-3M, > 100 µM (inactive); in the experiment with SF-295, > 100 µM (inactive); in the experiment with HL-60, > 100 µM (inactive); in the experiment on UO-31 it was 59.6 µM (inactive). For the same compound, the GI50 with COLO 205, with SK-OV-3 and with OVCAR-8 was > 100 µM (inactive) throughout.

Take `COc1ccccc1-c1cc(O)c2cc(C)cnc2n1`: the GI50 in the experiment on NCI-H226 is 52.2 µM (inactive); in the experiment on EKVX, 52.1 µM (inactive); in the experiment on KM12, 5.5 µM (inactive); with HCT-15, 19.3 µM; with A549, 51.6 µM (inactive); in the experiment on CAKI-1, 19.3 µM (inactive). Besides, the GI50 in the experiment on HT-29 was 23.1 µM (inactive); with Malme-3M, 24.7 µM (inactive); in the experiment on HOP-92, 36.8 µM (inactive); with UO-31 it was 47.9 µM (inactive); with COLO 205, 14.8 µM (inactive); in the experiment on SK-OV-3, 25.3 µM (inactive). In addition, the GI50 with OVCAR-8 was 66.2 µM (inactive).

As to `Cc1n(CC(=O)c2ccc([N+](=O)[O-])cc2)c2c([n+]1CC(C)C)C(=O)c1ccccc1C2=O`, the GI50 in the experiment on U-251 was < 0.01 µM (active); in the experiment with NCI-H226, < 0.0111 µM (active); with EKVX, < 0.0109 µM (active); in the experiment on KM12 it was < 0.0211 µM (active); in the experiment with HCT-15, 2.88 µM; with HCT-116 it was < 0.02 µM (active). In addition, the GI50 with A549 is < 0.0318 µM (active); with CAKI-1, 0.121 µM (active); with HT-29, < 0.0131 µM (active); in the experiment on Malme-3M, < 0.01 µM (active); in the experiment with KM-20L2 it was < 0.01 µM (active); in the experiment with HOP-92, < 0.0226 µM (active). Besides, the GI50 in the experiment on SF-295 was 0.329 µM (active); with HL-60, < 0.01 µM (active); with UO-31 it was 16.1 µM (inactive); in the experiment with COLO 205, < 0.01 µM (active); with DMS-273, < 0.01 µM (active); in the experiment with SK-OV-3, 0.361 µM (active). For the same compound, the GI50 in the experiment with OVCAR-8 was < 0.01 µM (active).

In the case of `CCCCSCCC(N)P(=O)(O)O` (centres undefined), the GI50 is > 100 µM (inactive) with U-251; > 100 µM (inactive) in the experiment with NCI-H226; > 100 µM in the experiment with HCT-15; > 100 µM (inactive) in the experiment with HCT-116; > 100 µM (inactive) with A549; > 100 µM (inactive) in the experiment on CAKI-1. Also, the GI50 in the experiment on HT-29, in the experiment with HOP-92, with SF-295, in the experiment with HL-60, with UO-31 and in the experiment with COLO 205 was > 100 µM (inactive) in each case. The GI50 in the experiment on SK-OV-3 and in the experiment on OVCAR-8 was > 100 µM (inactive) each time.
